Results taken from patent US8952024B2, “Herbicidal pyrimidone derivatives” (E I du Pont de Nemours and Company, priority 2009, dated 2015).

What was measured:
Format in all cases: in vivo
[1] = tested on: late watergrass (Echinochloa oryzicola); assay: Test E flooded paddy rice and weeds; settings: applied to paddy water, 21 days, scale 0 to 100
Text: (§1) Three plastic pots (ca. 16-cm diameter) for each application were partially filled with sterilized Tama silt loam soil comprising a 35:50:15 ratio of sand, silt and clay and 2.6% organic matter. Separate plantings for each of the three pots were as follows. Seeds from the U.S. of ducksalad (Heteranthera limosa), sedge (smallflower umbrella sedge, Cyperus difformis), ricefield bulrush (Scirpus mucronatus) and redstem (purple redstem, Ammannia coccinea), were planted into one 16-cm pot for each rate. Seeds from the U.S. of flatsedge (rice flatsedge, Cyperus iria), sprangletop (bearded (i.e. Brdd.) sprangletop, Leptochloa fascicularis), one stand of 9 or 10 water seeded rice seedlings (Oryza sativa cv. ‘Japonica—M202’), and two stands of 3 or 4 transplanted rice seedlings (Oryza sativa cv. ‘Japonica—M202’) were planted into one 16-cm pot for each rate. Seeds from the U.S. of barnyardgrass (Echinochloa crus-galli), late watergrass (Echinochloa oryzicola), early watergrass (Echinochloa oryzoides) and junglerice (Echinochloa colona) were planted into one 16-cm pot for each rate. Plantings were sequential so that crop and weed species were at the 2.0 to 2.5-leaf stage at time of treatment.
(§2) Potted plants were grown in a greenhouse with day/night temperature settings of 30/27° C., and supplemental balanced lighting was provided to maintain a 16-hour photoperiod. Test pots were maintained in the greenhouse until test completion.
(§3) At time of treatment, test pots were flooded to 3 cm above the soil surface, treated by application of test compounds directly to the paddy water, and then maintained at that water depth for the duration of the test. Effects of treatments on rice and weeds were visually evaluated by comparison to untreated controls after 21 days. Plant response ratings, summarized in Table E, are based on a scale of 0 to 100 where 0 is no effect and 100 is complete control. A dash (-) response means no test result.

[2] = tested on: sedge (smallflower umbrella sedge, Cyperus difformis); assay: Test E flooded paddy rice and weeds; settings: applied to paddy water, 21 days, scale 0 to 100
Text: as §1, §2, §3

[3] = tested on: flatsedge (rice flatsedge, Cyperus iria); assay: Test E flooded paddy rice and weeds; settings: applied to paddy water, 21 days, scale 0 to 100
Text: as §1, §2, §3

[4] = tested on: Russian thistle (Salsola kali); assay: Test B pre-/postemergence plant response; settings: Preemergence; for Russian Thistle plant response rating: 250 g ai/ha, 0 to 100 scale
In short: (§4)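 Each species received compound formulated in non-phytotoxic solvent with surfactant, either at planting into a loam and sand blend or as a foliar spray once plants reached 2 to 18 cm in peat-based medium. Plants stayed in the greenhouse 13 to 15 days before visual evaluation against controls, scored 0 (no effect) to 100 (complete control).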

[5] = tested on: deadnettle (henbit deadnettle, Lamium amplexicaule); assay: Test B pre-/postemergence plant response; settings: Postemergence
In short: as §4

[6] = tested on: bermudagrass (Cynodon dactylon); assay: Test D pre-/postemergence plant response
In short: (§5)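 Both preemergence and postemergence treatments were made at the same time, with the compound in a non-phytotoxic, surfactant-containing solvent mixture. Plants grew in a greenhouse for 14–21 days before visual evaluation, scored from 0 (no effect) to 100 (complete control).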

[7] = tested on: Russian thistle (Salsola kali); assay: Test D pre-/postemergence plant response
In short: as §5

[8] = tested on: dallisgrass (Paspalum dilatatum); assay: Test D pre-/postemergence plant response
In short: as §5

[9] = 62 g ai/ha, scale 0 to 100 (0 no effect, 100 complete control)
[10] = 31 g ai/ha, scale 0 to 100 (0 no effect, 100 complete control)
[11] = 125 g ai/ha, scale 0 to 100, 0 no effect, 100 complete control
[12] = 31 g ai/ha, 0 to 100 scale (0 no effect, 100 complete control)
[13] = 125 g ai/ha, scale 0 to 100 (0 no effect, 100 complete control)
[14] = 250 g ai/ha, scale 0 to 100 (0 no effect, 100 complete control), 13 to 15 days
[15] = Postemergence, 31 g ai/ha, scale 0 to 100
[16] = Postemergence, 62 g ai/ha, scale 0 to 100 (0 no effect, 100 complete control)
[17] = Postemergence, 125 g ai/ha, scale 0 to 100 (0 no effect, 100 complete control)
[18] = Postemergence, 250 g ai/ha, scale 0 to 100 (0 no effect, 100 complete control)
[19] = Preemergence, 62 g ai/ha, scale 0 to 100
[20] = Preemergence, 125 g ai/ha, scale 0 to 100
[21] = Preemergence, 250 g ai/ha, scale 0 to 100

SMILES: COc1ccc(-n2c(-c3ccccc3)ncc(C(=O)C3=C(O)CCCC3=O)c2=O)cc1 [Compound 4, 5-[(2-hydroxy-6-oxo-cyclohexen-1-yl)carbonyl]-3-(4-methoxyphenyl)-2-phenyl-4(3H)-pyrimidinone]
- Plant response rating, Watergrass, Late, Flood ([1]; 125 g ai/ha): 0
- Plant response rating, Watergrass, Late, Flood ([1]; 250 g ai/ha): 15
- Plant response rating, Watergrass, Late, Flood ([1]; 500 g ai/ha): 60
- Plant response rating, Sedge, Umbrella, Flood ([2]; 125 g ai/ha): 90
- Plant response rating, Sedge, Umbrella, Flood ([2]; 250 g ai/ha): 95
- Plant response rating, Sedge, Umbrella, Flood ([2]; 500 g ai/ha): 100
- Plant response rating, Flatsedge, Rice, Flood ([3]; 125 g ai/ha): 0
- Plant response rating, Flatsedge, Rice, Flood ([3]; 250 g ai/ha): 40
- Plant response rating, Flatsedge, Rice, Flood ([3]; 500 g ai/ha): 90

SMILES: Cc1ccc(-n2c(-c3ccccc3)ncc(C(=O)C3=C(O)CCCC3=O)c2=O)c(C)c1 [Compound 28]
- Plant response rating, Watergrass, Late, Flood ([1]; 32 g ai/ha): 0
- Plant response rating, Watergrass, Late, Flood ([1]; 64 g ai/ha): 0
- Plant response rating, Watergrass, Late, Flood ([1]; 125 g ai/ha): 0
- Plant response rating, Watergrass, Late, Flood ([1]; 250 g ai/ha): 0
- Plant response rating, Sedge, Umbrella, Flood ([2]; 32 g ai/ha): 0
- Plant response rating, Sedge, Umbrella, Flood ([2]; 64 g ai/ha): 85
- Plant response rating, Sedge, Umbrella, Flood ([2]; 125 g ai/ha): 90
- Plant response rating, Sedge, Umbrella, Flood ([2]; 250 g ai/ha): 100
- Plant response rating, Flatsedge, Rice, Flood ([3]; 32 g ai/ha): 0
- Plant response rating, Flatsedge, Rice, Flood ([3]; 64 g ai/ha): 0
- Plant response rating, Flatsedge, Rice, Flood ([3]; 125 g ai/ha): 0
- Plant response rating, Flatsedge, Rice, Flood ([3]; 250 g ai/ha): 45

SMILES: O=C1CCCC(O)=C1C(=O)c1cnc(-c2cccc(Cl)c2)n(-c2ccc(Cl)cc2)c1=O [Compound 64]
- Plant response rating, Russian Thistle [4, 9]: 0

SMILES: CCCCc1ncc(C(=O)C2=C(O)CCCC2=O)c(=O)n1-c1ccc(C)cc1 [Compound 67]
- Plant response rating, Russian Thistle [4, 10]: 85

SMILES: CCCc1ncc(C(=O)C2=C(O)CCCC2=O)c(=O)n1-c1ccccc1C [Compound 73]
- Plant response rating, Russian Thistle [4, 10]: 0

SMILES: CCCc1ncc(C(=O)C2=C(O)CCCC2=O)c(=O)n1CC1CCCO1 (centres unmarked) [Compound 74]
- Plant response rating, Russian Thistle [4, 10]: 0
- Plant response rating, Russian Thistle [4, 9]: 80
- Plant response rating, Russian Thistle [4, 11]: 90
- Russian Thistle plant response rating [4]: 98

SMILES: COCCn1c(-c2cc(F)cc(F)c2)ncc(C(=O)C2=C(O)CCCC2=O)c1=O [Compound 119]
- Plant response rating, Russian Thistle [4, 10]: 100
- Plant response rating, Russian Thistle [4, 9]: 100
- Plant response rating, Russian Thistle [4, 11]: 100
- Russian Thistle plant response rating [4]: 100

SMILES: COCCCn1c(-c2cc(F)cc(F)c2)ncc(C(=O)C2=C(O)CCCC2=O)c1=O [Compound 120]
- Plant response rating, Russian Thistle [4, 9]: 80
- Plant response rating, Russian Thistle [4, 11]: 80

SMILES: Cc1ccc(Cl)cc1-n1c(-c2cccc(F)c2)ncc(C(=O)C2=C(O)CCCC2=O)c1=O [Compound 184]
- Plant response rating, Deadnettle [5, 12]: 100
- Plant response rating, Deadnettle [5, 13]: 100
- Plant response rating, Deadnettle [5, 14]: 100

SMILES: O=C1CCCC(O)=C1C(=O)c1cnc(-c2cccc(F)c2)n(C2CCCCC2)c1=O [Compound 187]
- Plant response rating, Deadnettle [5, 12]: 80
- Plant response rating, Deadnettle [5, 14]: 100

SMILES: O=C1CCCC(O)=C1C(=O)c1cnc(-c2cccs2)n(C2CCCCC2)c1=O [Compound 189]
- Plant response rating, Deadnettle [5, 12]: 85
- Plant response rating, Deadnettle [5, 13]: 100
- Plant response rating, Deadnettle [5, 14]: 100

SMILES: CCCn1c(-c2cccc(Cl)c2)ncc(C(=O)C2=C(O)CCCC2=O)c1=O [Compound 190]
- Plant response rating, Deadnettle [5, 12]: 65
- Plant response rating, Deadnettle [5, 13]: 100
- Plant response rating, Deadnettle [5, 14]: 100

SMILES: Cc1cc(-n2c(-c3cccc(F)c3)ncc(C(=O)C3=C(O)CCCC3=O)c2=O)ccc1F [Compound 191]
- Plant response rating, Deadnettle [5, 12]: 90
- Plant response rating, Deadnettle [5, 9]: 100
- Plant response rating, Deadnettle [5, 13]: 100
- Plant response rating, Deadnettle [5, 14]: 100

SMILES: O=C1CCCC(O)=C1C(=O)c1cnc(-c2ccc(F)cc2)n(C2CCCCC2)c1=O [Compound 197]
- Plant response rating, Deadnettle [5, 12]: 100
- Plant response rating, Deadnettle [5, 9]: 100
- Plant response rating, Deadnettle [5, 13]: 100
- Plant response rating, Deadnettle [5, 14]: 100

SMILES: COc1ccc(-n2c(-c3ccccc3)ncc(C(=O)C3=C(O)CCCC3=O)c2=O)cc1OC [Compound 218]
- Plant response rating, Watergrass, Late, Flood ([1]; 32 g ai/ha): 20
- Plant response rating, Watergrass, Late, Flood ([1]; 64 g ai/ha): 40
- Plant response rating, Watergrass, Late, Flood ([1]; 125 g ai/ha): 40
- Plant response rating, Watergrass, Late, Flood ([1]; 250 g ai/ha): 70
- Plant response rating, Sedge, Umbrella, Flood ([2]; 32 g ai/ha): 85
- Plant response rating, Sedge, Umbrella, Flood ([2]; 64 g ai/ha): 95
- Plant response rating, Sedge, Umbrella, Flood ([2]; 125 g ai/ha): 100
- Plant response rating, Sedge, Umbrella, Flood ([2]; 250 g ai/ha): 100
- Plant response rating, Flatsedge, Rice, Flood ([3]; 32 g ai/ha): 75
- Plant response rating, Flatsedge, Rice, Flood ([3]; 64 g ai/ha): 70
- Plant response rating, Flatsedge, Rice, Flood ([3]; 125 g ai/ha): 70
- Plant response rating, Flatsedge, Rice, Flood ([3]; 250 g ai/ha): 75

SMILES: COCCn1c(-c2cc(F)cc(F)c2)ncc(C(=O)C2=C(O)C3CCC(C3)C2=O)c1=O (centres unmarked) [Compound 243, 2-(3,5-difluorophenyl)-5-[(2-hydroxy-4-oxobicyclo[3.2.1]oct-2-en-3-yl)carbonyl]-3-(2-methoxyethyl)-4(3H)-pyrimidinone]
- Plant response rating, Russian Thistle [4, 10]: 100
- Plant response rating, Russian Thistle [4, 9]: 100
- Plant response rating, Russian Thistle [4, 11]: 100
- Russian Thistle plant response rating [4]: 100
- Plant response rating, Bermudagrass [6, 15]: 75
- Plant response rating, Bermudagrass [6, 16]: 85
- Plant response rating, Bermudagrass [6, 17]: 95
- Plant response rating, Bermudagrass [6, 18]: 95
- Plant response rating, Bermudagrass [6, 19]: 100
- Plant response rating, Bermudagrass [6, 20]: 100
- Plant response rating, Bermudagrass [6, 21]: 100
- Plant response rating, Russian Thistle [7, 15]: 20
- Plant response rating, Russian Thistle [7, 16]: 30
- Plant response rating, Russian Thistle [7, 17]: 30
- Plant response rating, Russian Thistle [7, 18]: 60
- Plant response rating, Russian Thistle [7, 20]: 100
- Plant response rating, Russian Thistle [7, 21]: 100
- Plant response rating, Dallisgrass [8, 15]: 75
- Plant response rating, Dallisgrass [8, 16]: 80
- Plant response rating, Dallisgrass [8, 17]: 90
- Plant response rating, Dallisgrass [8, 18]: 90
- Plant response rating, Dallisgrass [8, 19]: 100
- Plant response rating, Dallisgrass [8, 20]: 100
- Plant response rating, Dallisgrass [8, 21]: 100

SMILES: CCCCn1c(-c2cc(F)cc(F)c2)ncc(C(=O)C2=C(O)C3CCC(C3)C2=O)c1=O (centres unmarked) [Compound 245]
- Plant response rating, Bermudagrass [6, 15]: 80
- Plant response rating, Bermudagrass [6, 16]: 80
- Plant response rating, Bermudagrass [6, 17]: 80
- Plant response rating, Bermudagrass [6, 18]: 80
- Plant response rating, Russian Thistle [7, 15]: 25
- Plant response rating, Russian Thistle [7, 16]: 60
- Plant response rating, Russian Thistle [7, 17]: 60
- Plant response rating, Russian Thistle [7, 18]: 70
- Plant response rating, Dallisgrass [8, 15]: 65
- Plant response rating, Dallisgrass [8, 16]: 75
- Plant response rating, Dallisgrass [8, 17]: 80
- Plant response rating, Dallisgrass [8, 18]: 85
